Values after ≈ are worked out from the molar mass of the structure shown.
System: rat corpus cavernosum tissue
Test: Relaxation of norepinephrine-precontracted isolated rat corpus cavernosum strips (organ bath)
Assay type: cell-based, Sprague-Dawley (SD) rats
Description: The extracts of this invention may be tested for their activity for alleviating or preventing symptoms erectile dysfunction by techniques known in the art. The test is similar to the endothelium-dependent vasorelaxatin test reported by Fitzpatrick et al., 1995. In general, in accordance with this protocol, plant extracts are tested for endothelium-dependent relaxation (EDR) by measuring the relaxation or contraction imparted by diluted samples to an appropriate tissue sample precontacted by norepinephrine to arrive at an EDR value that is the percentage of relaxation imparted. […] Experiments were performed on male, eight to twelve week old, 278.86±6.85 g Sprague-Dawley (SD) rats. Rats were housed in an animal care facility at the College of Medicine, University of Saskatchewan. Rats were anaesthetized with sodium pentobarbital (50 mg/kg) by intraperitoneal injection. The whole penis of one rat (shown at 10 in FIG. 3A) was gently dissected out and put into a Petri dish containing ice-cold Krebs' solution. The portion of the penis used for the experiments is shown generally at 12 in FIG. 3A. The penis was cleaned and the connective tissues were removed. The section 12 was prepared for testing as a proximal section (10 mm in length) of the corpus cavernosum 18, which was cut longitudinally into two pieces and the size of each piece was about 1×1×10 mm. […] The pH of this bath solution 23 was adjusted to 7.2. The corpus cavemosum strips 19 were tied with silk threads 24 at each end with one end immobilized at 26 on the inner wall of the organ bath chamber 20, and the other hooked to a transducer 28 (FT 03, Grass Ins. Co., Quincy). […] Strips 19 were contracted with 10 μM norepinephrine. After the plateau phase of contraction had been reached, the cumulative concentration-response relationships of BuSY and BuSY608 were tested. […] As a control and comparison compound, sildenafil ([…]®) was also used to test the penile tissue response (tissues prepared as above). […]

## CCCc1nn(C)c2c(=O)[nH]c(-c3cc(S(=O)(=O)N4CCN(C)CC4)ccc3OCC)nc12 [sildenafil]
Rattus norvegicus, strips precontracted with 10 μM norepinephrine, cumulative concentration-response, n=6
  EC50: 11.4 µg/mL (≈ 24 µM)
Induced by 200 μg/ml, norepinephrine-precontracted strips, n=6
  maximal relaxation: 66.7±6.1%
norepinephrine-precontracted strips, cumulative concentration ladder
  concentration at which relaxation was initiated: 0.6 µg/mL
